Measurements taken from US20150099754A1, “TREATMENT OF CANCER CHARACTERIZED BY GENE MUTATIONS” (SIGNAL PHARMACEUTICALS, LLC, priority 2013, published 2015).
Where “and” joins values, the source holds several entries; their conditions need not be identical. Equal entries are not always repeated.

How the values were obtained:
[1] = system: hematological cancer cell lines; assay: Growth inhibitory effect of Compound 1 (Cell Titer-Glo, 72 hours, GI50) correlated with biomarkers; assay type: cell-based
Description: Cell Lines and Culture Conditions.
40 hematological cancer cell lines (Table 5) used in the study were purchased commercially. A lung cancer cell line A549 was used as a control cell line. A549 was purchased from National Cancer Institute (NCI) and cultured in RPMI+10% fetal bovine serum (FBS).
Cell pellets were made for 37 cell lines without any compound treatment and a reverse phase protein array (RPPA) was performed as described in Tibes R, et al. Mol Cancer Ther 2006; 5:2512-2521. The RPPA analysis of the 37 hematological cell lines was performed with 262 antibodies. The relative level of each protein in each sample was determined and normalized for protein loading. Protein levels were then transformed to log 2 values and median centered by individual batch.
Cells were lysed in RNeasy kit tissue lysis (RLT) buffer (Qiagen; Valencia, Calif.) and total RNA was isolated using RNeasy. Double-stranded cDNA and biotin-labeled cRNA were synthesized using 100 ng of total RNA using Ambion's MessageAmp Premier RNA Amplification Kit. […]
The seeding density for each cell line was optimized to ensure assay linearity in 384-well plates. […] When ready for testing, plates were removed from the freezer, thawed, and unsealed just prior to the addition of the test cells.
Prior to testing, cells were grown and expanded in culture flasks to provide sufficient amounts of starting material. […] At the time when exposure of cells to compound began (t0), initial cell number was assessed via a viability assay (Cell Titer-Glo) by quantifying the level of luminescence generated by adenosine-5′-triphosphate (ATP) present in viable cells. After 72 hours, cell viability of compound-treated cells was assessed via Cell Titer-Glo and read for luminescence.
Cell lines were assayed for growth inhibition by Compound 1 in at least 3 independent tests. […] The response of the control cell line to the compound was monitored closely to enable comparison of the data generated through the assay period. […] In addition, the IC50 value of Compound 1 for each cell line was calculated.

[2] = system: Advanced Solid Tumors, Non-Hodgkin Lymphoma, or Multiple Myeloma; assay: Clinical Study B: Phase 1/2 dose finding study of the mTOR kinase inhibitor Compound 1 administered orally (best RECIST overall response, variants, Tables 2 and 3); assay type: in vivo, human; parameters: key: PR=partial response; SD=stable disease; PD=progressive disease; NE=non-evaluable; ND=not done; *: Confirmed reponse; settings: one line per patient
Description: A Phase 1/2, Multi-Center, Open-Label, Dose Finding Study to Assess the Safety. Tolerability, Pharmacokinetics and Preliminary Efficacy of the mTOR Kinase Inhibitor Compound 1 Administered Orally to Subjects with Advanced Solid Tumors, Non-Hodgkin Lymphoma, or Multiple Myeloma.
Compound 1 is administered orally to subjects with advanced solid tumors, non-Hodgkin lymphoma (NHL), or multiple myeloma (MM). The study is designed as a Phase 1/2 trial consisting of two parts: dose escalation (Part A) and dose expansion (Part B).
The primary objectives of the study are (a) to determine the safety and tolerability of Compound 1 when administered orally and to define the non-tolerated dose (NTD) and the maximum tolerated dose (MTD) and (b) to determine the preliminary pharmacokinetics (PK) of Compound 1 following both single and multiple oral dosing of Compound 1.
The secondary objectives of the study are: (a) to evaluate the extent of inhibition of phosphorylation of S6RP (Ser235/236 and/or Ser240/244) and/or 4EB-P1 (Thr37/46) for mTORC1 activity and AKT (Ser473) and/or other relevant biomarkers for mTORC2 activity in peripheral blood samples and tumor biopsies following treatment with Compound 1; (b) to provide information on the preliminary efficacy of Compound 1; and (c) to characterize PK of the metabolite of Compound 1 following oral dosing of Compound 1.
In Part A, subjects will receive single and multiple ascending doses of Compound 1 to measure pharmacokinetics (PK) and identify the maximum tolerated dose (MTD). A modified accelerated titration design (Simon et al, J Nat Cancer Inst (1997) Vol. 89, No. 15) will be used to identify initial toxicity. During the accelerated course, initial cohorts of one subject will be given Compound 1 in dose increments of 100% until the first instance of first-course grade 2 or higher toxicity suspected to be drug-related, at which point the accelerated phase will stop, and that particular cohort will be expanded to a total of 6 subjects. Subsequently, a standard escalation schedule, with approximately 50% dose increments and 6-subject cohorts, will be initiated in order to establish the non-tolerated dose (NTD) and MTD. Smaller increments and additional subjects within a dose cohort may also be evaluated. A dose will be considered the NTD when 2 evaluable subjects in a cohort experience drug-related DLT. When the NTD is established, dose escalation will stop. The MTD is defined as the last dose level below the NTD with 0 or 1 out of 6 evaluable subjects experiencing DLT during Cycle 1. An intermediate dose (ie, one between the NTD and the last dose level before the NTD) or additional subjects within any dose cohort may be required to more precisely determine the MTD.
In Part B, subjects may start Compound 1 at the MTD and/or a lower dose level based on safety, PK and PD data from Part A. Approximately 200 subjects will be treated and evaluated for safety and preliminary antitumor activity after every two cycles of therapy. Selected tumor types include non-small cell lung cancer (NSCLC), glioblastoma multiforme (GBM), hepatocellular carcinoma (HCC), gastrointestinal neuroendocrine tumor (NET) of non-pancreatic origin, hormone receptor positive breast cancer (HRPBC), diffuse large B-cell lymphoma (DLBCL), and multiple myeloma (MM). Up to 40 evaluable subjects will be enrolled for each tumor type.
Men and women, 18 years or older, with advanced NHL, MM, or advanced unresectable solid tumors, including subjects who have progressed on (or not been able to tolerate) standard therapy or for whom no standard anticancer therapy exists.
During the first cycle only in Part A, each subject will be administered a single dose of Compound 1 (Day −1), followed by a 48-hour observation and PK sampling period, followed on Day 1 by daily uninterrupted dosing for 28 days (Cycle 1=30 days). In subsequent Part A cycles, subjects are treated in 28-day cycles with continuous dosing from Day 1 to 28. […]

[3] = system: Advanced Solid Tumors, Non-Hodgkin Lymphoma or Multiple Myeloma; assay: Clinical Study A: Phase 1/2 dose finding study of Compound 1 administered orally (tumor response, RECIST 1.1); assay type: in vivo, human; parameters: key to RECIST* (best target lesion response): PR = partial response; SD = stable disease; PD = progressive disease; NE = nonevaluable; ND = not done
A549 = assay: Repeat testing of pre-spotted Compound 1 plates against the control cell line (A549); assay type: cell-based; settings: sealed 384-well plates stored at −20° C. for up to 1 month
Description: The seeding density for each cell line was optimized to ensure assay linearity in 384-well plates. Increasing concentrations of Compound 1 (0.5 nM to 10 μM) were spotted in a 10-point serial dilution fashion (3-fold dilution) in duplicate within the plate via an acoustic dispenser (EDCATS-100) into an empty 384-well plate. The dimethyl sulfoxide (DMSO) concentration was kept constant for a final assay concentration of 0.1% DMSO. Plates were replicated for use against different cell lines and testing periods. After compound plate replication, all plates were sealed (Agilent ThermoLoc) and stored at −20° C. for up to 1 month. […] When ready for testing, plates were removed from the freezer, thawed, and unsealed just prior to the addition of the test cells.

`CO[C@H]1CC[C@H](N2C(=O)CNc3ncc(-c4ccc(C(C)(C)O)nc4)nc32)CC1` [Compound 1, 7-(6-(2-hydroxypropan-2-yl)pyridin-3-yl)-1-((trans)-4-methoxycyclohexyl)-3,4-dihydropyrazino[2,3-b]pyrazin-2(1H)-one] was tested, and the “IRF4 protein levels versus sensitivity to growth inhibition” value ([1]; 37 hematological cancer cell lines, RPPA, FIG. 5) was “negatively correlated”, the “IRF4 gene expression level (Probe Set 216986_s_at) versus sensitivity to growth inhibition” value ([1]; 40 hematological cancer cell lines, FIG. 4) was “negatively correlated” and the “sensitivity versus activation of mTORC1 and mTORC2 (biomarker RPPA)” value ([1]; subgroup of DLBCL lines, FIG. 6) was “correlated”. The Best overall response ([2]; patients with HCC exp. (expansion)) was “SD (2×) and NE”, the Best overall response ([2]; patients with MM) was “PD (8×) and NE and SD (4×)” and the Best overall response ([2]; patients with NET exp. (expansion)) was “SD (17×) and PD (2×) and NE and PR”. The Best overall response ([2]; patients with NET) was “SD (18×) and NE (4×) and PR”, the Best overall response ([2]; patients with NSCL+) was “PR and PD” and the Best overall response ([2]; patients with NSCLC) was “NE (6×) and SD (11×) and PD (2×)”. For the same compound, the “RECIST* (best target lesion response)” value ([3]; ER+ patients, genes with mutations of interest) was “SD (8×) and PD (3×) and PR (2×)”, the “showing RECIST PR” value ([3]; patients treated with Compound 1, FIG. 1, data as of September 2014) was 2/17 and the “target lesions showing PR” value ([3]; patients treated with Compound 1, FIG. 1, data as of September 2014, all with PIK3CA mutations) was 3/17. For the same compound, the “stability in pre-spotted plates” value (A549) was “stable”.
